The source of these data is patent publication US7339059B2, “Benzofurans and indols” (Active Biotech AB, priority 2004, dated 2008).

One data set deals with T1, CCR1 receptor (Homo sapiens, UniProt P32246).
T1 construct: host or cells: THP-1
T1 sequence (P32246 1-355): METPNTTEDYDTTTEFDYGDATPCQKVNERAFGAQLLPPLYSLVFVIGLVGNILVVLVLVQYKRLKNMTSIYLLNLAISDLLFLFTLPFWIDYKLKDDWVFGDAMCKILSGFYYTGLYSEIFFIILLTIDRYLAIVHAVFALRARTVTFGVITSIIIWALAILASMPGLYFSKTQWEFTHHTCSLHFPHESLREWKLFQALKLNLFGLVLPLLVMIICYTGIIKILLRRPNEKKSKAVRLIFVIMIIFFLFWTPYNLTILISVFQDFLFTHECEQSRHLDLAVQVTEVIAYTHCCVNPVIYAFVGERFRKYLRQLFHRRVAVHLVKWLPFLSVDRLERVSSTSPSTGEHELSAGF
The data set can be described thus: In vitro Ca2+-flux assay on human monocytes (THP-1), MIP-1α stimulated. It is filed as cell-based. The following applies: block of MIP-1α induced Ca2+-flux in THP-1 cells; 2,5-dimethylpiperazine derivatives tested as racemic mixtures. As to the method: The binding of Mip-1α at the CCR1 receptor leads to an increase of intracellular calcium levels. The ability of the compounds of the invention to block this biologic response of the CCR1 receptor is determined in the Ca^2+-flux assay.
In Vitro Ca^2+-Flux Assay on Human Monocytes
• 1. Cell Culture: • a) THP-1 (ATCC Cat# TIB202) • b) Tissue culture medium: RPMI 1640 with Ultraglutamine 1 supplemented with 10% (v/v) foetal calf serum. This medium is hereinafter referred to as “growth medium”. • 2. Assay buffer: HBSS (Hanks' balanced salts solution), 20 mM HEPES, 1 mM CaCl2, 1 mM MgCl2, 2.5 mM Probenecid, pH 7.4. • 3. Fluo-4AM (Molecular Probes Cat # F14201) • 4. Pluronic® F-127 (Molecular Probes Cat # P-6867) • 5. The compounds of the invention were dissolved in DMSO. A serial dilution was made and nine concentrations of each compound were screened to generate a dose curve from which the IC50 value was determined. • 6. MIP-1α (Peprotech EC Ltd Cat# 300-08) • 7. Victor^2 1420 (Perkin Elmer) • 8. Microlite™^2+ (Dynex Cat # 7572) Assay Procedure:
THP-1 cells were grown in T-75 cm^2 flasks in growth medium at 37° C. in 5% CO2. The cells were harvested by centrifugation and resuspended in assay buffer. The cells were then loaded with 5 μM Fluo-4 and 0.02% pluronic acid (final concentrations) at 37° C. in 5% CO2 for 30 min. The excess dye was removed by washing with assay buffer. The cells were resuspended and 10^5 cells/well were added in a Microlite plate containing compounds and then incubated for 15 minutes at 37° C. in 5% CO2. The cells were then stimulated with MIP-1α and changes in intracellular free Ca^2+ concentration were measured with a Victor^2.
Using the procedures set forth in the competitive affinity binding assay and the Ca^2+-flux assay, various compounds of the invention were tested for their ability to block Ca^2+-flux (IC50^Ca). The results of some examples and the Compounds A, B, C, and D are shown in Table 2 where all IC50-values are given in nM (nano Molar). Table 2 exemplifies the invention without limiting the scope thereof.

The nature of data set [1]: In vivo bioavailability in the mouse (cassette dosing). The following applies: female SJL/N Tac mice; for half-life / clearance: mouse, nominal dose 1 mg/kg; for half-life: plasma half-life; for clearance: plasma; for F: oral bioavailability, nominal dose 1 mg/kg iv and oral. As to the method: In Vivo Bioavailability in the Mouse
Female mice (SJL/N Tac) were given a single intravenous or oral dose of a mixture of 5 or 6 compounds per cassette (nominal dose: 1 mg/kg/compound) in a solution containing 0.5% N,N′-dimethylacetamide (DMA) and 15% sulfobutyl ether β-cyclodextrin (Captisol®). Blood samples were taken from one mouse per time point and dose group until 24 hour after respective administration. The dose formulations and plasma concentrations of each compound were determined by LC-MS/MS. The pharmacokinetic parameters were determined by non-compartmental analysis using WinNonlin Professional (version 4.0.1). The elimination rate constant, λ, was estimated by linear regression analysis of the terminal slope of the logarithmic plasma concentration-time curve. The area under the plasma concentration-time curve, AUC0-t, was calculated by using the linear/logarithmic trapezoidal rule. The AUCinf was calculated with the residual area estimated as Cz/λ. The calculated plasma concentration at the last time point, Cz, was obtained from the regression equation. The oral bioavailability (F) was calculated as: Foral=(AUCinf,po/AUCinf,iv)·(Doseiv/Dosepo). Pharmacodynamic Assays
The compounds of the invention show oral bioavailability in the mouse. Using the procedures set forth in the in vivo bioavailability assay, various compounds of the invention were tested for their clearance (CL; L/h/kg), plasma half-life (t1/2; hrs) as well as oral bioavailability (F; %) after administration of the nominal dose of 1 mg/kg of each compound. Table 3 exemplifies the invention, without limiting the scope thereof.

pIC50: −log10 of the molar value.

Usually pIC50 stands for the negative decadic logarithm of the IC50, by convention in mol/L. For `COc1cccc2cc(C(=O)N3C[C@@H](C)N(Cc4ccc(F)cc4)C[C@@H]3C)oc12` (racemic) [Compound D, (trans)-4-(4-Fluorobenzyl)-1-(7-methoxy-benzofuran-2-yl-carbonyl)-2,5-dimethylpiperazine, reference compound], on CCR1 receptor, the pIC50 is less than 6.00. The term half-life denotes the time needed for the level to fall by half in the phase considered. Lower therefore signals fast loss. As usually defined, the clearance is the volume of plasma or blood freed of the substance per unit of time. Higher therefore signals efficient removal. In data set [1], `C[C@@H]1CN(C(=O)c2cc3cc(Cl)ccc3o2)[C@@H](C)CN1Cc1ccc(F)cc1` (racemic) [Compound 4.1, (trans)-1-(5-Chloro-benzofuran-2-yl-carbonyl)-4-(4-fluorobenzyl)-2,5-dimethylpiperazine] gave a half-life of 288 min, a clearance of 43.3 mL/min/kg and an F of 72%. On to `COc1cccc2cc(C(=O)N3C[C@@H](C)N(Cc4ccc(F)cc4)C[C@H]3C)oc12` (racemic) [Compound A, (cis)-4-(4-Fluorobenzyl)-1-(7-methoxy-benzofuran-2-yl-carbonyl)-2,5-dimethylpiperazine, reference compound], for which the pIC50 at CCR1 receptor was less than 6.00.

Regarding `O=C(c1cc2ccccc2o1)N1CCN(Cc2ccc(Cl)cc2)CC1` [Compound C, 4-(4-chlorobenzyl)-1-(benzofuran-2-yl-carbonyl)-piperazine, reference compound], the pIC50 at CCR1 receptor is less than 6.00. For the compound `Cc1ccc2cc(C(=O)N3C[C@@H](C)N(Cc4ccc(F)cc4)C[C@@H]3C)oc2c1` (racemic) [Compound 3.13, (trans)-4-(4-Fluorobenzyl)-1-(6-methyl-benzofuran-2-yl-carbonyl)-2,5-dimethylpiperazine], the pIC50 at CCR1 receptor is 7.70. For the compound `C[C@@H]1CN(C(=O)c2cc3cc(Br)ccc3o2)[C@@H](C)CN1Cc1ccc(F)cc1` (racemic) [Compound 3.1, (trans)-1-(5-Bromo-benzofuran-2-yl-carbonyl)-4-(4-fluorobenzyl)-2,5-dimethylpiperazine], the pIC50 at CCR1 receptor is 7.92. In addition, in data set [1], the half-life was 420 min, the clearance is 15 mL/min/kg and the F stood at 53%.

As for `C[C@@H]1CN(C(=O)c2cc3cc(Cl)c(Cl)cc3[nH]2)[C@@H](C)CN1Cc1ccc(F)cc1` (racemic) [Compound 3.20, (trans)-(5,6-Dichloro-indol-2-yl-carbonyl)-4-(4-fluorobenzyl)-2,5-dimethylpiperazine], the pIC50 at CCR1 receptor is 7.82.
